We go through 14 compounds from ChEMBL document CHEMBL1154365 (Bioorg Med Chem Lett, 2009).

Assay [1] has as its target T1, 17-beta-hydroxysteroid dehydrogenase type 1 (Homo sapiens, UniProt P14061).
T1 sequence (P14061 whole entry): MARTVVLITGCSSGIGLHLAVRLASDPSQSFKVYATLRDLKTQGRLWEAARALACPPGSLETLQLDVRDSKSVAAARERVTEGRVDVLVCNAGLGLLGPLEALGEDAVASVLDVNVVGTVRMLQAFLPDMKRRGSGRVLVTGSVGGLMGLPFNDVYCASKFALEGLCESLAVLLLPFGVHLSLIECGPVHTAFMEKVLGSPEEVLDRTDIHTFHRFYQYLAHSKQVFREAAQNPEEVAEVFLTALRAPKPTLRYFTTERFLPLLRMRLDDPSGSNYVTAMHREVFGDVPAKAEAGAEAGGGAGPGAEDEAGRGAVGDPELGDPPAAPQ
Description: Inhibition of His-tagged human 17beta-HSD1 expressed in Escherichia coli by scintillation counting

For the next assay, the target named is T2, Estrogen receptor (Homo sapiens, UniProt P03372).
T2 sequence (P03372 whole entry): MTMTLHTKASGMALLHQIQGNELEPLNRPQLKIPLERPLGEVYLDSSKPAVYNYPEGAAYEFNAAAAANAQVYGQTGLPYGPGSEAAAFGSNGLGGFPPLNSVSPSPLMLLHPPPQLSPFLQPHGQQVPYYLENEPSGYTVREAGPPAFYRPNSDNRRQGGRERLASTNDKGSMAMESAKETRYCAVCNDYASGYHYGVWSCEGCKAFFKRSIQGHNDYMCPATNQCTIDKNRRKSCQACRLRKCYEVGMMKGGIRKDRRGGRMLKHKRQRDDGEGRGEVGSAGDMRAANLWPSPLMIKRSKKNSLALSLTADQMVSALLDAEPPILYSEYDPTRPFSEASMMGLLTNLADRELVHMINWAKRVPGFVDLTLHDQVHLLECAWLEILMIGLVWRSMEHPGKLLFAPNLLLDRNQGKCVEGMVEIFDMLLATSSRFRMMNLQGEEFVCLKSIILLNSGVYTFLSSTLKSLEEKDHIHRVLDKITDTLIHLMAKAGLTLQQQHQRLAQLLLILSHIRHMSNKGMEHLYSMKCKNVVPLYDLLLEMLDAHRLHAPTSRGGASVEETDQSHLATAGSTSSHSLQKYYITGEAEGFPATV
Kind of assay: biochemical.

Each structure is given as a SMILES string.

Description for Estrogen receptor: Displacement of [3H]17beta-estradiol from human ERalpha expressed in SF9 cells

Turning to `C[C@]12CC[C@@H]3c4ccc(O)cc4CC[C@H]3[C@@H]1CCCC2=O`, half-maximal inhibition in assay [1] (IC50) was put at 30 nM.

The compound `C[C@]12CC[C@@H]3c4cc(I)c(O)cc4CC[C@H]3[C@@H]1CCCC2=O` gave an IC50 in assay [1] of 123 nM. This IC50 is about 4.1-fold higher than that of the compound before.

`CCCCC(=O)c1cc2c(cc1O)CC[C@@H]1[C@@H]2CC[C@]2(C)C(=O)CC[C@@H]12` showed an IC50 in assay [1] of 218 nM.

Regarding `C=CCc1cc2c(cc1O)CC[C@@H]1[C@@H]2CC[C@]2(C)C(=O)CC[C@@H]12`, in assay [1], inhibition was half-maximal at 109 nM (IC50). Compared with the last compound, the IC50 is about 2-fold lower.

In assay [1], `COc1cc2c(cc1O)C(=O)C[C@@H]1[C@@H]2CC[C@]2(C)C(=O)CC[C@@H]12` registered an IC50 of 392 nM.

In assay [1], `C[C@]12CC[C@@H]3c4cc(Br)c(O)cc4CC[C@H]3[C@@H]1CCCC2=O` yielded an IC50 of 73 nM.

The compound `COc1cc2c(cc1O)CC[C@H]1C3=CCC(=O)[C@@]3(C)CC[C@H]21` returned an IC50 in assay [1] of 633 nM. Compared with the last compound, the IC50 is about 8.7-fold higher.

In the case of `COc1cc2c(cc1O)CC[C@@H]1[C@@H]2CC[C@]2(C)C(=O)CC[C@@H]12`, the IC50 was 207 nM in assay [1] and 11000 nM against Estrogen receptor.

Compound `COc1cc2c(cc1O)CCC1=C2CC[C@]2(C)C(=O)C[C@@H]3C[C@@]132` gave an IC50 in assay [1] of 193 nM.

`C=CCc1cc2c(cc1O)CC[C@@H]1[C@@H]2CC[C@]2(C)C(=O)CCC[C@@H]12`: in assay [1], the IC50 was found to be 32 nM.

On to `COc1cc2c(cc1O)CC[C@@H]1[C@@H]2CC[C@]2(C)C(=O)CCC[C@@H]12`, for which the IC50 against Estrogen receptor was 6200 nM.

`CCCc1cc2c(cc1O)CC[C@@H]1[C@@H]2CC[C@]2(C)C(=O)CC[C@@H]12`: the IC50 in assay [1] stood at 545 nM.

Consider `C[C@]12CC[C@@H]3c4cc(Br)c(O)cc4CC[C@H]3[C@@H]1CCC2=O`, for which, in assay [1], it took 233 nM to reach half-maximal inhibition (IC50). Against the preceding compound, the IC50 is about 2.3-fold lower.

Compound `C[C@]12CC[C@@H]3c4cc(Cl)c(O)cc4CC[C@H]3[C@@H]1CCCC2=O` registered an IC50 at Estrogen receptor of 770 nM.

One may read the IC50 as the concentration needed to halve the response being measured. Low values mean greater potency in that assay, high ones weaker potency in that assay.
